Broadly, the inhibition is how much of the control response was suppressed. As a reminder, the pIC50 is the IC50 on a negative log10 scale, so that one unit is a factor of ten.

The test system of one data set is MCF-7. Put plainly: MTT antiproliferative assay, MCF-7. It is filed as cell-based, human. The procedure, abridged:
(§1)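 Cells (9 × 10^3/well) adhered for 24 h, then were treated 48 h with compound at 1, 10, 50 and 100 μM. MTT (2 mg·mL^−1 final) was added for 4 h, formazan dissolved in DMSO and OD read at 492 nm; IC50 was derived from percent inhibition versus blank and control.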
A general note: Formazan colour is commonly taken as a measure of viable cells.

For data set [1], the system named is HCT116. Put plainly: MTT antiproliferative assay, HCT116. It is filed as cell-based, human. The procedure, abridged: as §1
Another data set has as its system Hela. The experiment in a line: MTT antiproliferative assay, Hela. The class given is cell-based, human. The following applies: Homo sapiens, 48 h, MTT. The procedure, abridged:
as §1

A further data set deals with HepG-2. The experiment in a line: MTT antiproliferative assay, HepG-2. The class given is cell-based, human. The procedure, abridged:
as §1

Data set [2] relates to HepG-2 cells. The experiment in a line: Cell cycle analysis by flow cytometry (PI). To be noted: 48 h, control 11.47%. The class given is cell-based, human. The method, then:
HepG-2 cells were plated in […] (5.0 × 10^5 cells per well) and incubated at 37 °C for 12 h. Exponentially growing cells were then incubated with compound 2n at different concentrations (5, 10 and 20 μM). After 48 h, untreated cells (control) or cells treated with compound 2n were centrifuged at 1000 rpm (177 g) for 10 min, and then fixed in 70% ethanol at −20 °C for at least 24 h. The cells were subsequently resuspended in phosphate-buffered saline (PBS) containing 0.1mg mL^−1 RNase A and 5 μg·mL^−1 propidium iodide (PI). The cellular DNA content for the cell cycle distribution analysis was measured by flow cytometry using a FACS Calibur flow cytometer with Cell Quest software (Becton-Dickinson, Franklin Lakes, NJ, USA), plotting at least 30,000 events per sample. The percentage of cells in the G1, S and G2 phases of the cell cycle were determined using the ModFit LT V4.0 software package (Verity Software, Topsham, ME, USA).
For orientation: A flow cytometer gives signals particle by particle.

In data set [3] the test system is HepG-2 cells. The experiment in a line: Apoptosis analysis by flow cytometry (annexin V-FITC/PI). The following applies: 48 h, control 13.65%. It is filed as cell-based, human. The method, then: Apoptosis was detected using an Apoptosis Detection Kit (Invitrogen, Eugene, OR, USA). In brief, cells were cultured in […] (5.0 × 10^5 cells per well) and incubated at 37 °C for 12 h. Cells with exponential growth were then incubated with compound 2n at different concentrations (5, 10 and 20 μM). Following 48 h of incubation, the cells were collected, washed twice with PBS and once with 1binding buffer, and then stained with […] of annexin V-FITC and […] of PI (5 mg·mL^−1) in 1 × binding buffer for 30 min at 20 °C in the dark. Apoptotic cells were enumerated using a FACSCalibur flow cytometer with Cell Quest software (Becton–Dickinso, Franklin Lakes, NJ, USA).

Data set [4] concerns A549. Put plainly: MTT antiproliferative assay, A549. To be noted: Homo sapiens, A549, 48 h, MTT. The class given is cell-based, human. The essentials:
as §1

The test system of data set [5] is human normal liver (L02) cells. The experiment in a line: MTT assay on normal cell line L02. It is filed as cell-based.
Another data set has as its system BEL7402. The experiment in a line: MTT antiproliferative assay, BEL7402. It is filed as cell-based, human. To be noted: Homo sapiens, Bel-7402, 48 h, MTT. The procedure, abridged:
as §1

In data set [6] the test system is A549. To be noted: literature lead, Figure 1; cited from earlier work.
The subject of another data set is AGS. The following applies: literature lead, Figure 1; cited from earlier work.
Data set [7] deals with HCT116. Details: method as in PMID 26854375. The following applies: literature lead, Figure 1; cited from earlier work.
A further data set has as its system KB. Details: method as in PMID 23635011. The following applies: literature lead, Figure 1; cited from earlier work.
Setting [8] is: IC50 on normal cells (L02)/IC50 on tumour cells.

pIC50: −log10 of the molar value. Where two headings read alike, the source gives them in different places.

As for `CC12CCC3C(CC=C4CC(O)CCC43C)C1C/C(=C\c1cn(-c3ccc(I)cc3)nn1)C2=O` (stereo not drawn) [Compound 2n, (E)-3-hydroxy-16-((1-(4-iodophenyl)-1H-1,2,3-triazol-4-yl)methylene)-10,13-dimethyl-1,3,4,7,8,9,10,11,12,13,15,16-dodecahydro-2H-cyclopenta[a]phenanthren-17(14H)-one], the inhibition at 100 µM in the data set on MCF-7 (Homo sapiens, MCF7, 100 μM, 48 h, MTT, read-out: % Growth Inhibition at 100 μM MCF-7) turned out to be 81.3%; with HCT116 [1] (Homo sapiens, HCT-116, 100 μM, 48 h, MTT, read-out: % Growth Inhibition at 100 μM HCT116), 65.5%; with Hela (100 μM, read-out: % Growth Inhibition at 100 μM Hela), 17.3%; in the data set with HepG-2 (Homo sapiens, HepG2, 100 μM, 48 h, MTT, read-out: % Growth Inhibition at 100 μM HepG-2), 83%; in the data set on A549 [4] (100 μM, read-out: % Growth Inhibition at 100 μM A549), 46.8%; in data set [5] (Homo sapiens, L02, 100 μM, 48 h, MTT, normal cells, read-out: % Growth Inhibition at 100 μM L02) it was 34.2%. Also, the inhibition at 100 µM in the data set on BEL7402 (100 μM, read-out: % Growth Inhibition at 100 μM BEL7402) was less than 5%. The pIC50 with MCF-7 (Homo sapiens, MCF7, 48 h, MTT) is 5.04; with HCT116 [1] (Homo sapiens, HCT-116, 48 h, MTT), 4.51; with Hela (HeLa), less than 4.00; in the data set with HepG-2 (Homo sapiens, HepG2, 48 h, MTT) it was 5.04; in the data set on A549 [4] it was less than 4.00; in data set [5] (Homo sapiens, L02, 48 h, MTT, normal cell line), less than 4.00. The pIC50 in the data set on BEL7402 is less than 4.00. In the data set with MCF-7 (setting [8]), the “Selectivity Index MCF-7” value was greater than 10.89. In addition, the “Selectivity Index HCT116” value with HCT116 [1] (setting [8]) is greater than 3.22. In addition, the “Selectivity Index HepG-2” value with HepG-2 (setting [8]) is recorded as greater than 10.99. In addition, the “proportion of cells in the G2 phase” value in the data set with HepG-2 cells [2] (HepG-2, 5.0 µM) was 11.14%; with HepG-2 cells [2] (HepG-2, 10.0 µM), 0.41%; with HepG-2 cells [2] (HepG-2, 20.0 µM) it was 0.0%. Besides, the “percentage of total apoptotic cells (right quadrants)” value in the data set on HepG-2 cells [3] (HepG-2, 5.0 µM) came to 22.24%; with HepG-2 cells [3] (HepG-2, 10.0 µM), 27.24%. Also, the “toxicity in human normal liver (L02) cells” value in data set [5] (in words) is reported as “not toxic”.

For `COc1ccccc1-n1cc(COC(=O)C23CCC(C)C(C)C2C2=CCC4C5(C)CCC(=O)C(C)(C)C5CCC4(C)C2(C)CC3)nn1` (stereo not drawn) [Compound A], in the data set on A549 [6], the pIC50 was greater than 7.00.

With `O=c1ccc2cc3ccoc3c(OCc3cn(-c4ccc(C(F)(F)F)cc4)nn3)c2o1` [Compound B], in the data set on AGS, the pIC50 was 5.12.

In the case of `CC1CCC2(C(=O)O)CCC3(C)C(=CCC4C5(C)CC(=Cc6cc(O)ccc6O)C(=O)C(C)(C)C5CCC43C)C2C1C` (stereo not drawn) [Compound C], the pIC50 in the data set with HCT116 [7] was greater than 7.00.

In the case of `C[C@]12CC[C@H](O)CC1=CCC1C2CC[C@]2(C)C(=O)/C(=C/c3cccc(Cl)c3)CC12` (stereo partly drawn) [Compound D], in the data set with KB, the pIC50 was 6.22.

The values above are taken from article PMC6225165, “Design and Synthesis of Novel Dehydroepiandrosterone Analogues as Potent Antiproliferative Agents” (Molecules : A Journal of Synthetic Chemistry and Natural …, 2018).
